Like-named read-outs stand apart in the source and are kept apart here.
Experiments:
Format in all cases: cell-based, human
[1] = system: MAN2A1-FER transformed PC3 cells; assay: Cell death of PC3 cells transformed with pCDNA4-MAN2A1-FER-FLAG/pCDNA6
Description: FIG. 23. […] Prostate cancer cell line PC3 was transformed with pCDNA4-MAN2A1-FER-FLAG/pCDNA6. Expression of MAN2A1-FER was induced with 5 μg/mL tetracycline. Cells not treated with tetracycline nor any drug were used as background controls.
The second approach is to target EGFR activation by EGFR inhibitors. These include erlotinib, cetuximab, […], canertinib and […]. Many of these drugs were FDA approved and is widely used in a variety of human solid tumors. To interrogate the effectiveness of EGFR activation interruption in treating prostate cancer, we treated MAN2A1-FER transformed PC3 cells with canertinib.

[2] = system: PC3 cells containing TMEM135-CCDC67 breakpoint; assay: Ganciclovir killing of PC3 cells after genome editing that integrates HSV-1 TK at the TMEM135-CCDC67 breakpoint
Text: (§1) FIG. 28A-B. Genetic therapy targeting at TMEM135-CCDC67 genome breakpoint.
(§2) The technique described above was applied to cells having the TMEM135-CCDC67 breakpoint. Since none of the fusion genes we identified so far was present in prostate cancer cell lines, we created a TMEM135-CCDC67 genome breakpoint that is identical to the prostate cancer sample we analyzed. The expression of the TMEM135-CCDC67 breakpoint was driven by a CMV promoter. Subsequently, we constructed a donor DNA that encompassed HSV-1 TK and the splicing sites of TMEM135 exon 14. When we co-transfected this donor DNA with a vector that expresses gRNA targeting at the TMEM135-CCDC67 breakpoint into PC3 cells containing this genome breakpoint, integration of TK into the genome was identified (FIG. 28A). […] This is remarkable in considering only 5-10% transfection efficiency using conventional liposome method. […] In light of this promising result, both TMEM135-CCDC67-TK cassette and NicKase-gRNATMEM135-CCDC67-BrkPt DNA are now in the process of packaging into Adenovirus. We will infect the recombinant virus into these cells in the future experiments. This will dramatically improve the delivery efficiency in the subsequent animal study and probably human.

PC3 cells = assay: as above; details: PC3 cells without TMEM135-CCDC67 breakpoint, same treatment
Text: as §1, §2

Cn1cnc2c(F)c(Nc3ccc(Br)cc3Cl)c(C(=O)NOCCO)cc21 [AZD6244]
differential killing effect (MAN2A1-FER expressing versus not) ([1]; MEK interception, data not shown): largely moderated and vanished

C=CC(=O)Nc1cc2c(Nc3ccc(F)c(Cl)c3)ncnc2cc1OCCCN1CCOCC1 [Canertinib]
cell death / killing of cells not expressing MAN2A1-FER ([1]; PC3 cells not expressing MAN2A1-FER (Tet-)): minimal | specific killing of MAN2A1-FER expressing cells (FIG. 23) ([1]; expression induced with 5 μg/mL tetracycline): specifically kills

C[C@@H](Oc1cc(-c2cnn(C3CCNCC3)c2)cnc1N)c1c(Cl)ccc(F)c1Cl [Crisotinib]
cell death [1]: 31% | cell death / killing of cells not expressing MAN2A1-FER [1]: hardly killed | lowering of cancer killing EC50 by expression of MAN2A1-FER [1]: ~100 fold | specific killing of MAN2A1-FER expressing cells (FIG. 23) [1]: specifically kills

Nc1nc(O)c2ncn(COC(CO)CO)c2n1 [ganciclovir]
specific killing of TMEM135-CCDC67 breakpoint containing PC3 cells (FIG. 28B) [2]: specific killing | cell death (PC3 cells): minimal cell death

Source: patent publication US10988812B2, “Fusion genes associated with progressive prostate cancer” (UNIVERSITY OF PITTSBURGH - OF THE COMMONWEALTH SYSTEM OF …, priority 2013, dated 2021)
